According to publication PMC7939532 (Oncotarget, 2021):
Values joined by “and” are separate entries in the source; they are usually repeats but may differ in a detail not shown here. Identical values can stand only once. Like-named read-outs stand apart in the source and are kept apart here. Square brackets hold non-standard residues; d marks the D form. Primed or numbered codes have the meaning given here. Ends that are not written are not given here. Peptide text beside a SMILES is read from it. * marks the point of attachment. d1Nal = N[C@H](Cc1cccc2ccccc12)C(=O)O; Palmitoyl = CCCCCCCCCCCCCCCC(=O)*; PEG2′ = not defined here

How the values were obtained:
Ghrelin receptor [1] = biological target: T1, Ghrelin receptor (Homo sapiens, UniProt Q92847); assay: Inositol phosphate turnover assay in COS-7 cells transfected with the Ghrelin receptor; settings: for Δeff (%): efficacy, mean ± SEM of |Efficacymax - Efficacymin|; for x-fold over No. 2: EC50 relative to peptide 2
Description: Data were analyzed with GraphPad Prism 6.0 program (GraphPad Software, San Diego, CA, USA). EC50, pEC50 and Emax values were obtained from concentration–response curves. All signal transduction assays were performed in duplicate and repeated at least two times independently.

[2] = rat, in vivo
Description: Biodistribution in distinct organs and tissues of healthy rats was measured at 5 and 60 min after single intravenous injection of the ^68Ga- or ^64Cu-radiotracers 9b-c, 10b-c, and 15b-c in rats (see ^68Ga-tracers in Figure 3 and ^64Cu-tracers in Figure 4).
The molar activity was approximately 30 GBq × mmol^–1 at the time of injection (Table 3). […] Animals were sacrificed at 5 and 60 min post injection. Blood and the major organs were collected, weighed, and counted in a Wallac WIZARD automatic gamma counter (PerkinElmer, Germany). The radioactivity of the samples was decay-corrected and calibrated by comparing the counts in tissue with the counts in aliquots of the injected radiotracer that had been measured in the gamma counter at the same time. The activity amount in organs that could be completely extracted was expressed as percent of injected dose (% ID). The activity concentrations in tissues were calculated as standardized uptake values [SUV = (activity × mL^–1 tissue)/(injected activity/body weight), mL × g^–1)]. The SUV was used for better comparison within animals of different size and weight and with other species and to compare the biodistribution and the PET data.

DU-145 tumors [3] = assay: Biodistribution of 10c in DU-145 tumor bearing mice with blocking; assay type: in vivo; settings: one hour after injection
Description: (§1) The tumor mice with xenotransplanted PC-3 or DU-145 tumors were used when the tumors reached 0.54 ± 0.34 g or 0.18 ± 0.09 g (mean ± SD, n = 9), respectively. […] The mice were sacrificed one hour after injection and the organs and tissues were extracted. The activity measurements and calculations were carried out as described for the rat biodistribution experiments.

PC-3 tumors [4] = test system: PC-3 tumors; parameters: species or system mice; settings: mouse, in vivo
Description: (§2) Anesthetized, spontaneously breathing animals were allowed to stabilize for 10 min after preparation. The animals were positioned on a heated bed to maintain the body temperature at 37°C. The PET studies were carried out with a NanoScanPET/CT (Mediso, Hungary) or a microPET P4® (Siemens preclinical solutions, Knoxville, TN, USA). The activity of the injection solution was measured in a well counter (Isomed 2000, Dresden, Germany) cross-calibrated to the PET scanners. A 10 min transmission scan was recorded during this time for each subject by using a rotating point source of ^57Co (microPET). The transmission scans were used to correct the emission scan for γ-ray attenuation caused by body tissues and supporting structures; it was also used to demarcate the body field for image registration. […] At the end of the experiment, the animals were deeply anesthetized and sacrificed by an intravenous injection of potassium chloride. Acquisition was performed in 3D list mode. Emission data were collected continuously. The list mode data were sorted into sinograms with 32 or 38 frames (15 × 10 s, 5 × 30 s, 5 × 60 s, 4 × 300 s, 3 × 600 s, or 9 × 600 s). The data were decay-, scatter-, and attenuation-corrected. The frames from the microPET were reconstructed by Ordered Subset Expectation Maximization applied to 3D sinograms (OSEM3D) with 14 subsets, 15 OSEM3D iterations, 25 maximum a posteriori (MAP) iterations, and 1.8 mm resolution using the […] algorithm (Siemens Preclinical Solutions, Knoxville, TN, USA). The voxel size was 0.07 by 0.07 by 0.12 cm. The PET images measured with the nanoScanPET/CT were reconstructed using a three-dimensional Ordered Subsets Expectation Maximization (3D-OSEM) algorithm (Tera-Tomo, Mediso Ltd., Hungary) into dynamic frames as described and with a voxel size of 0.05 cm. No correction for partial volume effects was applied. The image volume data were converted to Siemens ECAT7 format for further processing and were then analyzed using the ROVER software (ABX GmbH, Radeberg, Germany). Masks for defining three-dimensional regions of interest (ROI) were set and the ROI's were defined by thresholding and ROI time activity curves (TAC) were derived for the subsequent data analysis. […] The ROIs were so determined that no surrounding tissue was included. The ROI data and TAC were further analyzed using R (R is available as Free Software under the terms of the Free Software Foundation's GNU General Public License in source code form) and especially developed program packages (Jörg van den Hoff, Frank Hofheinz, Helmholtz-Zentrum Dresden-Rossendorf, Dresden, Germany).

DU-145 tumors [5] = test system: DU-145 tumors; parameters: species or system mice; settings: mouse, in vivo
Description: as §2

[6] = parameters: species or system mice; settings: mouse, in vivo
Description: as §1

[7] = parameters: species or system rats; settings: rat, in vivo
PC-3 tumors [8] = assay: Biodistribution of 10c in PC-3 tumor bearing mice with blocking; assay type: in vivo; settings: one hour after injection
Description: as §1

Ghrelin receptor [9] = biological target: T1, Ghrelin receptor; assay: Competitive binding assay with ^125I-His-Ghrelin in COS-7 cells stably transfected with the Ghrelin receptor; parameters: expressed in transfected cells; host or cells: COS-7; settings: for x-fold over Ghrelin: Ki relative to Ghrelin; for x-fold over 2: Ki relative to peptide 2; for Ki: competition with ^125I-His-Ghrelin, read-out: Ki ± SD
Description: Each experiment was performed in triplicates. IC50 values of the binding curves were calculated by nonlinear regression on a sigmoidal dose-response based model by using program GraphPad Prism 6.0. Ki values were calculated by Cheng-Prusoff equation.

[10] = EC50, inverse agonist potency, COS-7 cells transfected with the Ghrelin receptor
[11] = pEC50 ± SEM, COS-7 cells transfected with the Ghrelin receptor
[12] = COS-7 cells transfected with the Ghrelin receptor
[13] = inverse agonist potency, COS-7 cells transfected with the Ghrelin receptor

T1 sequence (Q92847 whole entry, species assumed): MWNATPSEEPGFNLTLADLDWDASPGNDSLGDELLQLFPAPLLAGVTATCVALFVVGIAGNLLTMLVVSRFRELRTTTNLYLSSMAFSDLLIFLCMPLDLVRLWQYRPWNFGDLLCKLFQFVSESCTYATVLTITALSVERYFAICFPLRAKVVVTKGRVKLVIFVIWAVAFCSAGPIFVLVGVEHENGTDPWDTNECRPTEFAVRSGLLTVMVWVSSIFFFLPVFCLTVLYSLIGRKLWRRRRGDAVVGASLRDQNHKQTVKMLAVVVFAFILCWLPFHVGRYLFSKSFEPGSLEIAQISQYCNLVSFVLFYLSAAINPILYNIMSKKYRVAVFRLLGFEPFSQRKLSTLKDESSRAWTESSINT

| Compound | Δeff (%) (Ghrelin receptor [1]) | x-fold over No. 2 (Ghrelin receptor [1]) | pEC50 ± SEM (Ghrelin receptor [1]; [12]) | EC50 (Ghrelin receptor [1]; [13]) | further results |
| --- | --- | --- | --- | --- | --- |
| CC(C)C[C@H](NC(=O)[C@H](CC(C)C)NC(=O)[C@@H](Cc1c[nH]c2ccccc12)NC(=O)[C@H](Cc1ccccc1)NC(=O)[C@@H](Cc1cccc2ccccc12)NC(=O)[C@H](CCCCN)NC(=O)[C@@H](N)CCCCN)C(N)=O [compound 4, KK-(D-1-Nal)-FwLL-NH2] (H-KK[d1Nal]F[dW]LL-NH2) | 63% and 63 ± 2% |  |  |  | EC50 (Ghrelin receptor [1]; [10]): 13 nM; EC50 (Ghrelin receptor [1]; [11]): 12.6 nM |
| CCCCCCCCCCCCCCCC(=O)NCCCC[C@H](NC(=O)[C@H](CC(C)C)NC(=O)[C@@H](Cc1c[nH]c2ccccc12)NC(=O)[C@H](Cc1ccccc1)NC(=O)[C@@H](Cc1cccc2ccccc12)NC(=O)[C@@H](N)CCCCN)C(N)=O [compound 5] (H-K[d1Nal]F[dW]LK(Palmitoyl)-NH2) | 85% and 85 ± 2% |  |  |  | EC50 (Ghrelin receptor [1]; [10]): 3.5 nM; EC50 (Ghrelin receptor [1]; [11]): 3.16 nM |
| CCCCCCCCCCCCCCCC(=O)N[C@@H](CCCCN)C(=O)N[C@@H](CCCCN)C(=O)N[C@H](Cc1cccc2ccccc12)C(=O)N[C@@H](Cc1ccccc1)C(=O)N[C@H](Cc1c[nH]c2ccccc12)C(=O)N[C@@H](CC(C)C)C(=O)N[C@@H](CC(C)C)C(N)=O [compound 6, Palm-KK-(D-1-Nal)-FwLL-NH2] (Palmitoyl-KK[d1Nal]F[dW]LL-NH2) | 86 ± 2% | 2 |  |  | EC50 (Ghrelin receptor [1]; [10]): 11 nM |
| K(Palm)-K-(D-1-Nal)-FwLK[^natGa]Ga-NODAGA-NH2 [18a] | 75 ± 6% | 59 | 6.6 ± 0.10 | 267 nM |  |
| K-(D-1-Nal)-FwLK(PEG2)-NH2 (K[d1Nal]F[dW]LK(PEG2′)-NH2) [compound 7] |  |  | 6.8 ± 0.10 | 166 nM |  |
| K[^natGa]Ga-NODAGA-K-(D-1-Nal)-FwLK(Palm)-NH2 [16a] | 90 ± 4% | 3 | 7.9 ± 0.07 | 13.6 nM |  |
| Palm-KK-(D-1-Nal)-FwLK[^natGa]Ga-NODAGA-NH2 [17a] | 85 ± 6% | 132 | 6.2 ± 0.10 | 592 nM |  |
| [^64Cu]Cu-NODAGA-NH-K-K-(D-1-NaI)-F-w-L-L-NH2 [10c] |  |  |  |  | brain uptake [2]: 0.06-0.1 SUV; tumor to muscle ratio as percent of control (DU-145 tumors [3]; blocked with 1 mg/kg Ghrelin): 71.0 ± 10.7%; tumor to muscle ratio as percent of control (DU-145 tumors [3]; blocked with 1 mg/kg KKD): 59.7 ± 30.2%; activity concentration in tumor (PC-3 tumors [4]): 2.02 ± 0.28 SUV; activity concentration in tumor (PC-3 tumors [4]; 1 mg/kg): 0.99 ± 0.05 SUV; activity concentration in tumor (DU-145 tumors [5]): 1.34 ± 0.24 SUV; activity concentration in tumor (DU-145 tumors [5]; 1 mg/kg): 0.68 ± 0.05 SUV; specific tumor uptake relative to the compound of Charron et al. [6]: approximately 10 times; uptake in organs and tissues [6]: > 0.3 SUV; original compound found in the kidneys [7]: 1%; original compound found in the liver [7]: 14%; original compound found in the urine [7]: 6%; tumor to muscle ratio as percent of control (PC-3 tumors [8]; blocked with 1 mg/kg Ghrelin): 83.4 ± 18.4%; tumor to muscle ratio as percent of control (PC-3 tumors [8]; blocked with 1 mg/kg KKD): 51.2 ± 4.5% |
| [^natGa]Ga-NODAGA-K(Palm)-K-(D-1-Nal)-FwLL-NH2 [12a] | 92% and 92 ± 4% | 5 | 7.7 ± 0.06 | 20.3 nM | x-fold over Ghrelin (Ghrelin receptor [9]): 126; x-fold over 2 (Ghrelin receptor [9]): 14; Ki (Ghrelin receptor [9]): 66.9 ± 25.7 nM |
| [^natGa]Ga-NODAGA-K-(D-1-Nal)-FwLL-NH2 [9a] | 88% and 88 ± 8% | 14 | 7.2 ± 0.10 | 64.8 nM |  |

Now from value to compound, other results behind:

| Δeff (%) (Ghrelin receptor [1]) | x-fold over No. 2 (Ghrelin receptor [1]) | pEC50 ± SEM (Ghrelin receptor [1]; [12]) | EC50 (Ghrelin receptor [1]; [13]) | Compound | further results |
| --- | --- | --- | --- | --- | --- |
| 42% and 42 ± 1% |  |  |  | CC(C)C[C@H](NC(=O)[C@@H](Cc1c[nH]c2ccccc12)NC(=O)[C@H](Cc1ccccc1)NC(=O)[C@@H](Cc1cccc2ccccc12)NC(=O)[C@@H](N)CCCCN)C(=O)N[C@@H](CCCCN)C(N)=O [compound 3, K-(D-1-Nal)-FwLK-NH2] (H-K[d1Nal]F[dW]LK-NH2) | EC50 (Ghrelin receptor [1]; [10]): 162 nM; EC50 (Ghrelin receptor [1]; [11]): 158 nM |
| 61 ± 3% | 37 |  |  | K-(D-1-Nal)-FwLK(PEG2)-NH2 [compound 7] |  |
| 85 ± 3% | 111 | 6.3 ± 0.08 | 499 nM | PEG2-KK-(D-1-Nal)-FwLL-NH2 [compound 8] |  |
|  | > 1000 |  | > 1000 nM | PEG2-K[^natGa]Ga-NODAGA-K-(D-1-Nal)-FwLL-NH2 [14a] | EC50 (Ghrelin receptor [1]; value given in the text): 1800 ± 600 nM |
| 92% and 92 ± 3% | 6 | 7.5 ± 0.06 | 28.7 nM | Palm-K[^natGa]Ga-NODAGA-K-(D-1-Nal)-FwLL-NH2 [13a] |  |
| 89 ± 3% | 4 | 7.8 ± 0.05 | 16.5 nM | [^natGa]Ga-NODAGA-KK-(D-1-Nal)-FwLK(Palm)-NH2 [15a] | x-fold over Ghrelin (Ghrelin receptor [9]): 21; x-fold over 2 (Ghrelin receptor [9]): 2; Ki (Ghrelin receptor [9]): 11 ± 4.3 nM |
| 98% and 98 ± 4% | 8 | 7.5 ± 0.07 | 34.7 nM | [^natGa]Ga-NODAGA-KK-(D-1-Nal)-FwLL-NH2 [10a] | x-fold over Ghrelin (Ghrelin receptor [9]): 57; x-fold over 2 (Ghrelin receptor [9]): 6; Ki (Ghrelin receptor [9]): 30.3 ± 7.5 nM |
